# Data from patent US20100022542A1, “COMPOUNDS EXHIBITING THROMBOPOIETIN RECEPTOR AGONISM” (Shionogi & Co., Ltd., priority 2000, published 2010).
# Molecular target: T1, human TPO receptor (hTPOR) (Homo sapiens, UniProt P40238)
# T1 construct: expressed in transfected cells; host or cells: BaF-B03 (murine IL-3 dependent cell line)
# T1 sequence (P40238 26-635): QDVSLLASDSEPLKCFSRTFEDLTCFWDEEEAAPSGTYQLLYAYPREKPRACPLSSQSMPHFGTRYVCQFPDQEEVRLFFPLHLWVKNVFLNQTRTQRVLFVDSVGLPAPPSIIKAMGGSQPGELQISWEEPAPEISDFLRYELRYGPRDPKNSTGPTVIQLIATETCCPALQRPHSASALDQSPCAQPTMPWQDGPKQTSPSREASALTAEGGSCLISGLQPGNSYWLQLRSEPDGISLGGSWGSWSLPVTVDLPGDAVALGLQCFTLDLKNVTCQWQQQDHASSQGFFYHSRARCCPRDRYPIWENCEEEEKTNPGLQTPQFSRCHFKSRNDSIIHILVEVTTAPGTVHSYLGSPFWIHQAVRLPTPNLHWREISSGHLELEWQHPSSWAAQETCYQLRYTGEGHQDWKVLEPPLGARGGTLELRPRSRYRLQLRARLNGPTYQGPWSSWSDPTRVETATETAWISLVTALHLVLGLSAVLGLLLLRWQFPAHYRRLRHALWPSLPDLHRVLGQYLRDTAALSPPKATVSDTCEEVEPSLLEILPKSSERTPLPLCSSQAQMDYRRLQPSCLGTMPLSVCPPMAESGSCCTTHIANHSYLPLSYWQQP
# Test: Proliferation of TPO dependent BaF/hTPOR cells, WST-1, thrombopoietic activity ED50 (Test Example 3)
# Format: cell-based
# Conditions: 20 h incubation then WST-1 4 h, absorbance at 450 nm
# Excerpt: FIG. 2: The chart represents proliferation of the human TPO dependent cells bearing human TPO receptors by the present invention compound, wherein the x-axis is concentration of the present invention compound, and the y-axis is the absorbance as an indicator of cell proliferation. Open circles indicate a response of human TPO, and closed circles indicate a response of the compound (B-1).
# The TPO dependent BaF/hTPOR cell line which was established by introducing human TPO receptor (hTPOR) into BaF-B03 cells according to Collins et al (J. Cell. Physiol., 137:293-298 (1988)) was used to test the thrombopoietic activity of the present compound. The DNA sequences and encoded peptide sequences for human hTPOR have been described by Vigon et al (Proc. Natl. Acad. Sci. USA, 89:5640-5644 (1992)). TPO dose not have any ability to support proliferation of interleukin-3 dependent parental cell line BaF-B03. BAF/hTPOR cells were maintained in RPMI medium and WEHI-3B conditioned medium as a source of murine interleukin-3 (IL-3). These cells were washed and resuspended in RPMI medium without a source of murine IL-3 and seeded into each well of 96-well microtiter plates at a density of 5×10^4 cells per well in the absence or presence of various concentration of hTPO or the present compound. After incubation at 37° C. for 20 hours in the 5% CO2 incubator, 10% WST-1 reagent (Takara Biomedicals, Japan) was added to each wells and the cells were further incubated for 4 hours. Effect of the present compound on the growth of BAF/mTPOR cell line which was established by introducing murine TPO receptor (mTPOR) into BAF-B03 cells is shown in FIG. 3. Table 8 exemplifies the ED50 for tested compounds of the present invention, wherein the ED50 is the half concentration of the concentration showing the maximum thrombopoietic activity.
row,EC50 [µM],SMILES
1,0.218,CCOC(=O)/C=C/c1ccc(C(=O)Nc2nc(-c3ccc(Cl)c(Cl)c3)cs2)cc1 [Compound A-3]
2,0.124,O=C(O)/C=C/c1ccc(C(=O)Nc2nc(-c3ccc(Cl)c(Cl)c3)cs2)cc1 [Compound A-4]
3,0.984,CCOC(=O)C(=Cc1ccc(C(=O)Nc2nc(-c3ccc(Cl)c(Cl)c3)cs2)cc1)CC [Compound A-5]
4,0.248,CCC(=Cc1ccc(C(=O)Nc2nc(-c3ccc(Cl)c(Cl)c3)cs2)cc1)C(=O)O [Compound A-6]
5,0.529,CC(C(=O)O)=C(C)c1ccc(C(=O)Nc2nc(-c3ccc(Cl)c(Cl)c3)cs2)cc1 [Compound A-8]
6,0.504,CCOC(=O)C(C)=Cc1ccc(C(=O)Nc2nc(-c3ccc(F)c(F)c3)cs2)cc1 [Compound A-9]
7,0.365,CC(=Cc1ccc(C(=O)Nc2nc(-c3ccc(F)c(F)c3)cs2)cc1)C(=O)O [Compound A-10]
8,0.0335,CCOC(=O)C(Cl)=Cc1ccc(C(=O)Nc2nc(-c3ccc(Cl)c(Cl)c3)cs2)cc1 [Compound A-11]
9,0.017,O=C(O)/C(Cl)=C/c1ccc(C(=O)Nc2nc(-c3ccc(Cl)c(Cl)c3)cs2)cc1 [Compound A-14]
10,0.132,C/C(=C\c1ccc(C(=O)Nc2nc(-c3cccc(F)c3)cs2)cc1)C(=O)O [Compound A-18]
11,0.17,CCOC(=O)/C(C)=C/c1ccc(C(=O)Nc2nc(-c3cccc(OC(F)(F)F)c3)cs2)cc1 [Compound A-19]
12,0.61,C/C(=C\c1ccc(C(=O)Nc2nc(-c3cccc(OC(F)(F)F)c3)cs2)cc1)C(=O)O [Compound A-20]
13,0.337,CCOC(=O)/C(C)=C/c1ccc(C(=O)Nc2nc(-c3ccc(F)cc3)cs2)cc1 [Compound A-23]
14,0.288,C/C(=C\c1ccc(C(=O)Nc2nc(-c3ccc(F)cc3)cs2)cc1)C(=O)O [Compound A-24]
15,0.15,CCOC(=O)/C(C)=C/c1ccc(C(=O)Nc2nc(-c3ccc(C(F)(F)F)cc3)cs2)cc1 [Compound A-25]
16,0.098,C/C(=C\c1ccc(C(=O)Nc2nc(-c3ccc(C(F)(F)F)cc3)cs2)cc1)C(=O)O [Compound A-26]
17,0.193,CCOC(=O)/C(C)=C/c1ccc(C(=O)Nc2nc(-c3cccc(C(F)(F)F)c3)cs2)cc1 [Compound A-27]
18,0.099,C/C(=C\c1ccc(C(=O)Nc2nc(-c3cccc(C(F)(F)F)c3)cs2)cc1)C(=O)O [Compound A-28]
19,0.289,CCOC(=O)/C(Cl)=C/c1ccc(C(=O)Nc2nc(-c3cccc(F)c3)cs2)cc1 [Compound A-29]
20,0.274,O=C(O)/C(Cl)=C/c1ccc(C(=O)Nc2nc(-c3cccc(F)c3)cs2)cc1 [Compound A-30]

row,EC50 [µM],SMILES
1,0.056,CCOC(=O)/C(Cl)=C/c1ccc(C(=O)Nc2nc(-c3cccc(OC(F)(F)F)c3)cs2)cc1 [Compound A-31]
2,0.04,O=C(O)/C(Cl)=C/c1ccc(C(=O)Nc2nc(-c3cccc(OC(F)(F)F)c3)cs2)cc1 [Compound A-32]
3,0.096,CCOC(=O)/C(Cl)=C/c1ccc(C(=O)Nc2nc(-c3ccc(F)c(F)c3)cs2)cc1 [Compound A-35]
4,0.095,O=C(O)/C(Cl)=C/c1ccc(C(=O)Nc2nc(-c3ccc(F)c(F)c3)cs2)cc1 [Compound A-36]
5,0.096,CCOC(=O)/C(Cl)=C/c1ccc(C(=O)Nc2nc(-c3ccc(F)cc3)cs2)cc1 [Compound A-37]
6,0.245,O=C(O)/C(Cl)=C/c1ccc(C(=O)Nc2nc(-c3ccc(F)cc3)cs2)cc1 [Compound A-38]
7,0.044,CCOC(=O)/C(Cl)=C/c1ccc(C(=O)Nc2nc(-c3ccc(C(F)(F)F)cc3)cs2)cc1 [Compound A-39]
8,0.047,O=C(O)/C(Cl)=C/c1ccc(C(=O)Nc2nc(-c3ccc(C(F)(F)F)cc3)cs2)cc1 [Compound A-40]
9,0.039,CCOC(=O)/C(Cl)=C/c1ccc(C(=O)Nc2nc(-c3cccc(C(F)(F)F)c3)cs2)cc1 [Compound A-41]
10,0.05,O=C(O)/C(Cl)=C/c1ccc(C(=O)Nc2nc(-c3cccc(C(F)(F)F)c3)cs2)cc1 [Compound A-42]
11,0.071,O=C(O)/C(F)=C/c1ccc(C(=O)Nc2nc(-c3ccc(Cl)c(Cl)c3)cs2)cc1 [Compound A-43]
12,0.227,O=C(O)/C(F)=C/c1ccc(C(=O)Nc2nc(-c3cccc(C(F)(F)F)c3)cs2)cc1 [Compound A-44]
13,0.203,O=C(O)C(F)=Cc1ccc(C(=O)Nc2nc(-c3cccc(OC(F)(F)F)c3)cs2)cc1 [Compound A-45]
14,0.263,O=C(O)C(F)=Cc1ccc(C(=O)Nc2nc(-c3ccc(C(F)(F)F)cc3)cs2)cc1 [Compound A-46]
15,0.512,O=C(O)/C(Cl)=C/c1ccc(C(=O)Nc2nc(-c3ccc(-c4ccccc4)cc3)cs2)cc1 [Compound A-47]
16,0.473,CC(C)(C)c1ccc(-c2csc(NC(=O)c3ccc(/C=C(\Cl)C(=O)O)cc3)n2)cc1 [Compound A-48]
17,0.116,CCCCCc1ccc(-c2csc(NC(=O)c3ccc(/C=C(\Cl)C(=O)O)cc3)n2)cc1 [Compound A-49]
18,0.113,O=C(O)/C(Cl)=C/c1ccc(C(=O)Nc2nc(-c3ccccc3F)cs2)cc1 [Compound A-50]
19,0.568,O=C(O)/C(Cl)=C/c1ccc(C(=O)Nc2nc(-c3c(F)cccc3F)cs2)cc1 [Compound A-51]
20,0.425,COc1cccc(-c2csc(NC(=O)c3ccc(/C=C(\Cl)C(=O)O)cc3)n2)c1 [Compound A-52]

row,EC50 [µM],SMILES
1,0.065,O=C(O)/C(Cl)=C/c1ccc(C(=O)Nc2nc(-c3cccc(-c4ccccc4)c3)cs2)cc1 [Compound A-54]
2,0.037,CCCCc1cccc(-c2csc(NC(=O)c3ccc(/C=C(\Cl)C(=O)O)cc3)n2)c1 [Compound A-55]
3,0.066,O=C(O)/C(Cl)=C/c1ccc(C(=O)Nc2nc(-c3ccc(F)cc3F)cs2)cc1 [Compound A-56]
4,0.019,O=C(O)/C(Cl)=C/c1ccc(C(=O)Nc2nc(-c3cccc(C(F)(F)F)c3F)cs2)cc1 [Compound A-57]
5,0.497,O=C(O)/C(Cl)=C/c1ccc(C(=O)Nc2nc(-c3cc(F)ccc3F)cs2)cc1 [Compound A-58]
6,0.164,CCCCOc1ccc(-c2csc(NC(=O)c3ccc(/C=C(\Cl)C(=O)O)cc3)n2)cc1 [Compound A-59]
7,0.023,O=C(O)/C(Cl)=C/c1ccc(C(=O)Nc2nc(-c3ccc(C(F)(F)F)cc3F)cs2)cc1 [Compound A-60]
8,0.207,COc1ccc(-c2csc(NC(=O)c3ccc(/C=C(\Cl)C(=O)O)cc3)n2)c(F)c1 [Compound A-61]
9,0.101,O=C(O)/C(Cl)=C/c1ccc(C(=O)Nc2nc(-c3cc(F)c(F)cc3F)cs2)cc1 [Compound A-62]
10,0.025,O=C(O)/C(Cl)=C/c1ccc(C(=O)Nc2nc(-c3ccc(F)c(Br)c3)cs2)cc1 [Compound A-63]
11,0.204,CC(C)Cc1ccc(-c2csc(NC(=O)c3ccc(/C=C(\Cl)C(=O)O)cc3)n2)cc1 [Compound A-64]
12,0.028,O=C(O)/C(Cl)=C/c1ccc(C(=O)Nc2nc(-c3cc(C(F)(F)F)cc(C(F)(F)F)c3)cs2)cc1 [Compound A-65]
13,0.211,Cn1cc(-c2csc(NC(=O)c3ccc(/C=C(\Cl)C(=O)O)cc3)n2)c2ccccc21 [Compound A-66]
14,0.222,O=C(O)/C(F)=C/c1ccc(C(=O)Nc2nc(-c3ccc(F)cc3)cs2)cc1 [Compound A-68]
15,0.071,O=C(O)/C(Cl)=C/c1ccc(C(=O)Nc2nc(-c3ccc(Br)cc3F)cs2)cc1 [Compound A-69]
16,0.089,Cc1ccc(-c2csc(NC(=O)c3ccc(/C=C(\Cl)C(=O)O)cc3)n2)c(F)c1 [Compound A-70]
17,0.119,O=C(O)/C(Cl)=C/c1ccc(C(=O)Nc2nc(-c3cccc(F)c3F)cs2)cc1 [Compound A-72]
18,0.075,O=C(O)/C(Cl)=C/c1ccc(C(=O)Nc2nc(-c3ccc4c(c3)CCC4)cs2)cc1 [Compound A-73]
19,0.472,O=C(O)/C(Cl)=C/c1ccc(C(=O)Nc2nc(-c3ccc4c(c3)CCO4)cs2)cc1 [Compound A-74]
20,0.073,O=C(O)/C(Cl)=C/c1ccc(C(=O)Nc2nc(-c3ccc(F)c(Cl)c3)cs2)cc1 [Compound A-75]
